Test results: patent US10351915B2 (Berg LLC, priority 2009, dated 2019)

What was measured:
[1] = test system: PaCa-2 pancreatic cancer cells; test: Oxygen consumption rate (OCR), SeaHorse XF analyzer; format: cell-based; conditions: absence and presence of stressors
Text: (§1) (SeaHorse Biosciences Inc, North Billerica, Mass.).
(§2) In contrast, cancer cells (e.g., MCF-7, PaCa-2) are inherently primed to culture at higher levels of glucose compared to normal cells due to their glycolytic phenotype for maintenance in culture.

[2] = test system: MCF-7 breast cancer cells; test: as above; format: cell-based; conditions: absence and presence of stressors
Text: as §1, §2

SCC cells [3] = test: Real-time PCR Diabetes Array; format: cell-based
Text: (§3) The control cells were untreated cells.

SKMEL-28 cells = test: 2-D gel electrophoresis proteomic analysis; format: cell-based
Description: For isolation of proteins, cells were washed three times with 5 mL of ice cold PBS at a pH of 7.4. The cells were then scraped in 3 mL of PBS, pelleted by centrifuge, and re-suspended in a lysis buffer at pH 7.4 (80 mM TRIS-HCl, 1% SDS, with protease and phosphotase inhibitors). Protein concentrations were quantified using the BCA method.
The gels were run in duplicate.
The first experimental set processed and evaluated by Western blot and 2-D gel electrophoresis was the skin cancer cell line SKMEL-28.
A comparative analysis of 943 spots across all twenty-four gels was performed, comparing the control sample against all of the treated samples. The analysis included the identification of spot changes over the time course due to increase, decrease, or post-translational modification.
The analysis found thirty-two statistically significant differential spot changes. […] The characterized peptides were searched against protein databases with Mascot and MSRAT software analysis to identify the protein (Table 2).

HDFa cells = test: Extracellular acidification rate (ECAR), SeaHorse XF analyzer; format: cell-based, human
Text: as §1
In this experiment, the OCR and extracellular acidification rate (ECAR) in normal cells lines were obtained in the presence and absence of CoQ10 to determine baseline values. It was observed that in its native nutrient environment, the basal OCR rates in normal cells lines are different, and are usually a function of the physiological roles of the cells in the body.
Table 127 below describes the ECAR values (mpH/min) in HDFa cells in the presence or absence of CoQ10 under normoxic and hypoxic conditions at 5.5 mM and 22 mM glucose.

Hif1 alpha = test: Western blot, Hif1 alpha levels; format: cell-based, human; conditions: whole cell lysates of normal cells
Description: The Actin blots were stripped by incubating for 30 minutes with methanol, followed by two 10 minute washes with TBS-T, then 30 minutes of incubation with Stripping buffer at 50 deg C., and followed by two washes with 100 ml or more of TBS-T for 30′ each. The blots were scanned in laser scanner to check for complete stripping. The blots were activated with methanol for 5 seconds, washed with water for 5 minutes, and TBST for 15 minutes. The blots were blocked for 1 hour with 5% blocking reagent in TBS-T at room temperature and then washed 3 times with TBS-T (1×-15′; 2×5′ each) and probed with the primary antibody for Hif 1 alpha, Caspase 3 or PDHB in 5% BSA (at 1:200 by incubation overnight at 4 deg C. with gentle shaking. The primary antibody for Hif 1 alpha (Abcam ab2185; antirabbit) was at 1:500 dilution in 5% BSA. The primary antibody for Caspase 3 (Santacruz sc7272; antirabbit) was at 1:200 dilution in 5% BSA. The primary antibody for Pyruvate Dehydrogenase beta (PDHB) (Novus Biologicals H00005162-M03; antimouse) was at 1:500 dilution in 5% BSA. After incubation with primary antibodies, the membranes were washed 3 times with TBS-T (1×-15′; 2×5′ each) and probed with the secondary antibody (PDHB antimouse; Hif 1a and Caspase 3 antirabbit; 1:10,000 dilution) for 1 h at room temperature. […]

SCC cells [4] = test: Real-time PCR Heat Shock Protein Array; format: cell-based
Text: as §3
Heat Shock Arrays were run for SCC cells and the data of regulated genes is summarized below in Table 13.

With COC1=C(OC)C(=O)C(C/C=C(\C)CC/C=C(\C)CC/C=C(\C)CC/C=C(\C)CC/C=C(\C)CC/C=C(\C)CC/C=C(\C)CC/C=C(\C)CC/C=C(\C)CCC=C(C)C)=C(C)C1=O [Q10, Coenzyme Q10] the OCR values [1] was “consistent reduction in OCR values”, the OCR values [2] was “consistent reduction in OCR values” and the “Regulation (mRNA)” value (SCC cells [3]; 100 μM Q10, at 6 and 24 hours) was “Down regulated at 6 and 24”. The “Regulation (mRNA)” value (SCC cells [3]; 100 μM Q10, at 6 hours) was “Down regulated at 6 hours”, the “Expression (2D spot)” value (SKMEL-28 cells; 3 hr, 50 uM Q10) was “down” and the “Expression (2D spot)” value (SKMEL-28 cells; 3 hr, 100 uM Q10) was “down”. For the same compound, the “Expression (2D spot)” value (SKMEL-28 cells; 6 hr, 50 uM Q10, protein EIF6) was “up”, the “Expression (2D spot)” value (SKMEL-28 cells; 6 hr, 50 uM Q10, protein LMNB1) was “down” and the “Expression (2D spot)” value (SKMEL-28 cells; 6 hr, 100 uM Q10, protein EIF6) was “down”. For the same compound, the “Expression (2D spot)” value (SKMEL-28 cells; 6 hr, 100 uM Q10, protein VIM) was “up”, the “Expression (2D spot)” value (SKMEL-28 cells; 12 hr, 50 uM Q10, protein LGALS1) was “down” and the “Expression (2D spot)” value (SKMEL-28 cells; 12 hr, 50 uM Q10, protein PDCD6IP) was “up”. The “Expression (2D spot)” value (SKMEL-28 cells; 12 hr, 100 uM Q10) was “up”, the “Expression (2D spot)” value (SKMEL-28 cells; 24 hr, 50 uM Q10) was “down” and the ECAR (HDFa cells; high glucose hypoxic conditions) was “lowering of elevated ECAR”. The ECAR values (HDFa cells; normoxic and hypoxic, 5.5 mM and 22 mM glucose) was “minimal influence on ECAR values”, the “lower band of Hif1a” value (Hif1 alpha) was “showed a decrease as well” and the “DNAJA1 Regulation” value (SCC cells [4]; 100 μM Q10, at 6 hours) was “Up regulated at 6”. For the same compound, the “DNAJB5 Regulation” value (SCC cells [4]; 100 μM Q10, at 6 hours) was “Down regulated”, the “DNAJB13 Regulation” value (SCC cells [4]; 100 μM Q10, at 6 hours) was “Down regulated” and the “DNAJC4 Regulation” value (SCC cells [4]; 100 μM Q10, at 6 hours) was “Down regulated”. For the same compound, the “DNAJC5B Regulation” value (SCC cells [4]; 100 μM Q10, at 6 hours) was “Down regulated”, the “DNAJC12 Regulation” value (SCC cells [4]; 100 μM Q10, at 6 hours) was “Down regulated” and the “HSPA8 Regulation” value (SCC cells [4]; 100 μM Q10, at 6 hours) was “Up regulated at 6”. The “HSPH1 Regulation” value (SCC cells [4]; 100 μM Q10, at 6 hours) was “Up regulated at 6” and the “CCT6B Regulation” value (SCC cells [4]; 100 μM Q10, at 24 hours) was “Down regulated”.
